# Laboratory results: PMC8222254, “Self-assembly of an anion receptor with metal-dependent kinase inhibition and potent in vitro anti-cancer properties” (Nature Communications, 2021)
# Where “and” joins values, the source holds several entries; their conditions need not be identical. Equal values may be shown once.
# Tests used:
# Type in all cases: biochemical
# [1] = molecular target: 140 purified human kinases (Homo sapiens, UniProt P45983); assay: Kinase inhibition screen, cell-free 33P ATP assay at 10 μM
# Description: (§1) [L2Cu3]^6+ and [L2Zn3]^6+ were submitted to the MRC Protein Phosphorylation and Ubiquitination Unit International Centre for Kinase Profiling (University of Dundee) and tested in duplicate (at 10 μM) against a series of 140 purified human kinases in a cell-free kinase assay using ^33P ATP[55],[56]. The kinase gene IDs from the screen were then translated into common IDs (HGNC symbol) using biomaRt package[57],[58] in R[59] and R Studio[60] and used as input to the KinMap programme.
# [2] = molecular target: 140 purified human kinases (Homo sapiens, UniProt Q16644); assay: as above; conditions: for % Activity inhibition Mean / % Activity inhibition Run 1 / % Activity inhibition Run 2 / % Activity remaining Run 1 / % Activity remaining Run 2: 10 µM
# Description: as §1
# [3] = molecular target: 140 purified human kinases (Homo sapiens, UniProt P07947); assay: as above
# Description: as §1
# [4] = molecular target: 140 purified human kinases (Homo sapiens, UniProt P36507); assay: as above
# Description: as §1
# [5] = molecular target: 140 purified human kinases (Homo sapiens, UniProt P27448); assay: as above
# Description: as §1
# [6] = molecular target: recombinant human AMPK (pT172 AMPKα1, pS108 AMPKβ1) (Homo sapiens, UniProt Q13131); assay: In vitro phosphatase assay with recombinant kinase, immunoblotting; conditions: 50 μM complex, 4 h, with ATP
# Description: 800 ng of purified recombinant human AMPK (α1β2γ1) or Src kinase (MRC PPU, International Centre for Kinase Profiling, University of Dundee) was incubated with 50 μM [L2Cu3]^6+, [L2Zn3]^6+, or vehicle control in 50 mM Tris HCl pH 7.5 containing 50 μM ATP for 4 h at 37 °C. For [L2Zn3]^6+ time course and concentration titration experiments, 800 ng recombinant human AMPK was used (α1β2γ1 AMPK isoform for pT172 AMPKα1 detection or α2β1γ1 AMPK isoform for pS108 AMPKβ1 detection). For evaluation of ATP dependency and influence of AMP, 50 µM ATP was replaced with 50 µM AMP or omitted. Reactions were stopped by addition of Laemmli’s buffer (Biorad) to 1x and heating at 95 °C for 5 min before analysis by SDS PAGE and immunoblotting for detection of specific phosphorylated amino acids of AMPK and Src proteins.
# Protein lysates and recombinant proteins were resolved on 15% SDS polyacrylamide gels. Proteins were electroblotted onto nitrocellulose membrane by wet transfer in 1xTris Glycine buffer (Biorad) at 35 mA overnight at room temperature. After blocking of membranes, these were incubated with primary antibody overnight at 4 °C before addition of rabbit or mouse secondary antibody (HRP-conjugated; 1:5000, Dako P0448 or P0260) for 1 h at room temperature and development of blots by enhanced chemiluminescence. Primary antibodies were: anti-Src (total) (Cell Signalling Technology #2123 1:1000), anti-phosphorylated Src (Y527) (Cell Signalling Technology #21055 1:1000), anti-phosphorylated Src (Y416) (Cell Signalling Technology #69435 1:1000), anti-AMPKα (total) (Cell Signalling Technology #2532 1:1000), anti-phosphorylated AMPKα (T172) (Cell Signalling Technology #2535 1:1000), anti-AMPKβ1 (total) (Cell Signalling Technology #4150 1:1000), anti-phosphorylated AMPKβ1 (S108) (abcam ab156890 1:500), anti-phospho-Tyr (pan) (Cell Signalling Technology #8954 1:2000), anti-p53 (Santa Cruz, DO-1 clone, 1:1000,), anti-phosphorylated LDH-A (Y10) (Cell Signalling Technology #8176 1:1000), anti-LDH-A/B (total) (abcam ab134187 1:5000), anti-β-actin (Merck MAB1501, 1:40,000). Quantification of signals was performed by densitometry using Image J software. Uncropped and unprocessed scans are provided in the Source Data file.
# [7] = molecular target: T1, recombinant human AMPK (α1β2γ1) (Homo sapiens, UniProt Q13131); assay: ATP competition kinase assay
# T1 construct: purchased Promega
# Description: ATP competition kinase assays were performed by the MRC Protein Phosphorylation and Ubiquitination Unit International Centre for Kinase Profiling (University of Dundee). Inhibition of recombinant human AMPK (α1β2γ1) by 10μM [L2Cu3]^6+ or [L2Zn3]^6+ was evaluated at five different ATP concentrations (0.5, 2, 20, 200 and 500 µM ATP). Substrate competition assays were performed using the ADP-Glo Kinase Assay (Promega) and recombinant human AMPK (α1β2γ1) (Promega) with concentrations of the provided AMPK substrate (SAMStide substrate, Promega) ranging from 1 to 15 mg/ml. Following pre-incubation of substrate with kinase for 5 min 10 µM [L2Cu3]^6+, [L2Zn3]^6+ or solvent control and 50 µM ATP was added to start the kinase reaction. For determination of the effects of AMP on AMPK inhibition by [L2Zn3]^6+, the ADP-Glo Kinase Assay (Promega) was performed in presence of varying of AMP (0, 80, 160 μM).
# [8] = molecular target: T1, recombinant human AMPK (α1β2γ1); assay: Substrate competition assay (ADP-Glo Kinase Assay)
# T1 sequence (Q13131 whole entry): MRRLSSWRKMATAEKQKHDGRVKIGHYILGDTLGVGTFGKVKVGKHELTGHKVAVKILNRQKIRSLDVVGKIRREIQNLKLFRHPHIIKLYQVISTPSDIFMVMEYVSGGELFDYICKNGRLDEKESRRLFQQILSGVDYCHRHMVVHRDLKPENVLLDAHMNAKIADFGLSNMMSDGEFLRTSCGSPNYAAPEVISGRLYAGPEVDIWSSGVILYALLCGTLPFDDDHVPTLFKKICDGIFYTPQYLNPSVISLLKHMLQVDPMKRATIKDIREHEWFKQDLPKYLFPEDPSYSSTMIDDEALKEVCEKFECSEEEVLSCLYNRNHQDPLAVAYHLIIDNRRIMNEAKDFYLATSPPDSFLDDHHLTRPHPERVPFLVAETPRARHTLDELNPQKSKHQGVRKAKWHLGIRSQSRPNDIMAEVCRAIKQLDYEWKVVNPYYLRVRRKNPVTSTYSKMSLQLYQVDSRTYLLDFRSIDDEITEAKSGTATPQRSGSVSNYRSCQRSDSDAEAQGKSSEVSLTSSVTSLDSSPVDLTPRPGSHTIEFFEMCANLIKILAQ
# T1 sequence (O43741 whole entry partner): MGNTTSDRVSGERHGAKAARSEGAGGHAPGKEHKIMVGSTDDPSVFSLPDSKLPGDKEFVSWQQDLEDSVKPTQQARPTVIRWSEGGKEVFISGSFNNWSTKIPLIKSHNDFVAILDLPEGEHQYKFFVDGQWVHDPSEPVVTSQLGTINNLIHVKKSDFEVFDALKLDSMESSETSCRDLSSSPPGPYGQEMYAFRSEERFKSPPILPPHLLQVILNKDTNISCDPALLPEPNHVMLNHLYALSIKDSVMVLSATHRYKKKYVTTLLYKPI
# T1 sequence (P54619 whole entry partner): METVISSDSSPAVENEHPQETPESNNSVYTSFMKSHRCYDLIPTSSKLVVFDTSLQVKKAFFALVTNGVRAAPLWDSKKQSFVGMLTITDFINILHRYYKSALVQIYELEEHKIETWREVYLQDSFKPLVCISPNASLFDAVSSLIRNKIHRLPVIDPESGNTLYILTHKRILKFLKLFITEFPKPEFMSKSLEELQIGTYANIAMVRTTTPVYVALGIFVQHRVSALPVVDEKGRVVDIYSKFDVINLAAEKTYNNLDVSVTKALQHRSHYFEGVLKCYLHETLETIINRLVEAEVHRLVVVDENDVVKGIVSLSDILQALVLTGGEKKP
# 140 purified human kinases (Homo sapiens, UniProt P27448), sequence (P27448 whole entry): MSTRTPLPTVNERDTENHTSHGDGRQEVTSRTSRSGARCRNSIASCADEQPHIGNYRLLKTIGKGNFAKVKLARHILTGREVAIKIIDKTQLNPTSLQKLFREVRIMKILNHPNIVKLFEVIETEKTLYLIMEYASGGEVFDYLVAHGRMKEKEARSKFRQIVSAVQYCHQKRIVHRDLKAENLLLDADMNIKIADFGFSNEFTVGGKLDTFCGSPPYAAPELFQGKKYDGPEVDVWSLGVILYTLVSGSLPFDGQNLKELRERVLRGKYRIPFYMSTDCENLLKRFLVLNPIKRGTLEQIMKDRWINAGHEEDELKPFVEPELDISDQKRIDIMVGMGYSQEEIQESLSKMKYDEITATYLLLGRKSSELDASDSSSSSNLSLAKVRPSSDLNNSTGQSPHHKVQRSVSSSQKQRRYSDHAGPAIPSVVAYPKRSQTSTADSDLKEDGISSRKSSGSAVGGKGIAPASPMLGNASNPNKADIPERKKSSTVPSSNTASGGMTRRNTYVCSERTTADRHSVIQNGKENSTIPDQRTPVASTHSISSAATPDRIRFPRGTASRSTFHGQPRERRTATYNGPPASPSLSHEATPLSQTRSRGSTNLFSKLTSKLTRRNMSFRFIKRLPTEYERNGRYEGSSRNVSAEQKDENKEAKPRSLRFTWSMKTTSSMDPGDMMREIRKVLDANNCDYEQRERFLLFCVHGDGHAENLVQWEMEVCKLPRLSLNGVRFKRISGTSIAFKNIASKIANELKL
# 140 purified human kinases (Homo sapiens, UniProt P36507), sequence (P36507 whole entry): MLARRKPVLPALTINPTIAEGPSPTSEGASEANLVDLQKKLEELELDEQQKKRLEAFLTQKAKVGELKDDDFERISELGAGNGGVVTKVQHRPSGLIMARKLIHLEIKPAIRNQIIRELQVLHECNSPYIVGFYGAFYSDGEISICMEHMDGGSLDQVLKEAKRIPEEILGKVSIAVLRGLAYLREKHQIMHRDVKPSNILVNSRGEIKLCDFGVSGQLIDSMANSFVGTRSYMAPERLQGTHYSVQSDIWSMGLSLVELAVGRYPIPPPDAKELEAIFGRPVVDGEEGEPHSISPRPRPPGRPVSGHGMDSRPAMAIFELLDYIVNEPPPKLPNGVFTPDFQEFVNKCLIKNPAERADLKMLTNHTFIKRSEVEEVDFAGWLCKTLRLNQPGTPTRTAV
# 140 purified human kinases (Homo sapiens, UniProt P07947), sequence (P07947 whole entry): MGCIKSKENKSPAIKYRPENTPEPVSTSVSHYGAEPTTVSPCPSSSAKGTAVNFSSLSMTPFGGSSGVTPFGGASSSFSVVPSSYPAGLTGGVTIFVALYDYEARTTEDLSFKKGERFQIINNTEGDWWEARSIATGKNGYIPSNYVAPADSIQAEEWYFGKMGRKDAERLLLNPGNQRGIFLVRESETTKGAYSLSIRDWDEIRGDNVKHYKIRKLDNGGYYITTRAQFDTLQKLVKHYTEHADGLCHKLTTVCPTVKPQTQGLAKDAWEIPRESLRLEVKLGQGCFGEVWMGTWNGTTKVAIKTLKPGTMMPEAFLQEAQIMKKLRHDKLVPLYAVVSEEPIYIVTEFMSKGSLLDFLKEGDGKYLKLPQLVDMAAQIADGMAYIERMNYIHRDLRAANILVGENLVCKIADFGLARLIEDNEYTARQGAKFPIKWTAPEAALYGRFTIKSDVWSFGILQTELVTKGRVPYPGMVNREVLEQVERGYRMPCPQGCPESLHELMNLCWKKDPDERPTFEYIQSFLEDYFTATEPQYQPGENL
# 140 purified human kinases (Homo sapiens, UniProt Q16644), sequence (Q16644 whole entry): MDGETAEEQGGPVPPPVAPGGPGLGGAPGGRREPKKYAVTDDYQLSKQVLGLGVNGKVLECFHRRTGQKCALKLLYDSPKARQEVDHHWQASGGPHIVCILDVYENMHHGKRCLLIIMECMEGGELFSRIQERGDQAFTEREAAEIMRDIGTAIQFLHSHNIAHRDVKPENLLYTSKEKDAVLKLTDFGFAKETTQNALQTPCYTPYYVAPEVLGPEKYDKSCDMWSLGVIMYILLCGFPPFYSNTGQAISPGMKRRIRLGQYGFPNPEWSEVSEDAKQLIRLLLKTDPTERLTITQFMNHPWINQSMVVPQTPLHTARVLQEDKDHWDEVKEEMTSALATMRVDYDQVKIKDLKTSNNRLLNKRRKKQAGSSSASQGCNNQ
# 140 purified human kinases (Homo sapiens, UniProt P45983), sequence (P45983 whole entry): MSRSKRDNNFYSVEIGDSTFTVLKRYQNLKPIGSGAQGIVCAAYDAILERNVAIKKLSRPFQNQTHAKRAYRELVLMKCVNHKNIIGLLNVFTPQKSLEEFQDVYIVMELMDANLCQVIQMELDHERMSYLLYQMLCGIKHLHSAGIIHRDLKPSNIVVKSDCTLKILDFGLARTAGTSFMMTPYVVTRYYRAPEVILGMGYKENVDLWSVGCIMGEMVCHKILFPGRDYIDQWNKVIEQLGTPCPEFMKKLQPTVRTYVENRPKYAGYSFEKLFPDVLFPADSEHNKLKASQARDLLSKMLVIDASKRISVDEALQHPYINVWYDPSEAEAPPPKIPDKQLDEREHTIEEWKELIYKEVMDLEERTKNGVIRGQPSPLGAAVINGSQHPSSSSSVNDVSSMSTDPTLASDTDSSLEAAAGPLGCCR
# recombinant human AMPK (pT172 AMPKα1, pS108 AMPKβ1), sequence (Q13131 whole entry, canonical isoform): as the sequence (Q13131 whole entry) above
# recombinant human AMPK (pT172 AMPKα1, pS108 AMPKβ1), sequence (O43741 whole entry partner, canonical isoform): as the sequence (O43741 whole entry partner) above
# recombinant human AMPK (pT172 AMPKα1, pS108 AMPKβ1), sequence (P54619 whole entry partner, canonical isoform): as the sequence (P54619 whole entry partner) above
smiles,measurement,setting,value
[Cu+2].[Cu+2].[Cu+2].c1ccc(-c2csc(NCCN(CCNc3nc(-c4ccccn4)cs3)CCNc3nc(-c4ccccn4)cs3)n2)nc1.c1ccc(-c2csc(NCCN(CCNc3nc(-c4ccccn4)cs3)CCNc3nc(-c4ccccn4)cs3)n2)nc1 [[L2Cu3]6+],% Inhibition Run 1,[1]; JNK1,20.4%
same,% Inhibition Run 2,[1]; JNK1,5.8%
same,"% Inhibition, Mean",[1]; JNK1,13%
same,mean % activity,[1]; JNK1,87%
same,% activity,"[1]; JNK1, Run 1",79.6%
same,% activity,"[1]; JNK1, Run 2",94.2%
same,% Inhibition Run 1,[2]; MAPKAP-K3,98.5%
same,% Inhibition Run 2,[2]; MAPKAP-K3,89.3%
same,"% Inhibition, Mean",[2]; MAPKAP-K3,94%
same,mean % activity,[2]; MAPKAP-K3,6%
same,% activity,"[2]; MAPKAP-K3, Run 1",1.5%
same,% activity,"[2]; MAPKAP-K3, Run 2",10.7%
same,% Activity inhibition Mean,[2]; MAPKAP-K3,93.9%
same,% Activity inhibition Run 1,[2]; MAPKAP-K3,98.5%
same,% Activity inhibition Run 2,[2]; MAPKAP-K3,89.3%
same,% Activity remaining Run 1,[2]; MAPKAP-K3,1.50%
same,% Activity remaining Run 2,[2]; MAPKAP-K3,10.70%
same,% Inhibition Run 1,[3]; YES1,12.4%
same,% Inhibition Run 2,[3]; YES1,-9%
same,"% Inhibition, Mean",[3]; YES1,1.7%
same,mean % activity,[3]; YES1,98%
same,% activity,"[3]; YES1, Run 1",87.6%
same,% activity,"[3]; YES1, Run 2",109%
same,% Inhibition Run 1,[4]; MKK2,70.5%
same,% Inhibition Run 2,[4]; MKK2,79%
same,"% Inhibition, Mean",[4]; MKK2,75%
same,mean % activity,[4]; MKK2,25%
same,% activity,"[4]; MKK2, Run 1",29.5%
same,% activity,"[4]; MKK2, Run 2",21%
same,% Inhibition Run 1,[5]; MARK3,28.5%
same,% Inhibition Run 2,[5]; MARK3,28.2%
same,"% Inhibition, Mean",[5]; MARK3,28%
same,mean % activity,[5]; MARK3,72%
same,% activity,"[5]; MARK3, Run 1",71.5%
same,% activity,"[5]; MARK3, Run 2",71.8%
same,T172P levels of AMPKα detectable by immunoblotting,[6],significantly reduced
same,"% Activity remaining compared to 100% DMSO controls, individual replicates",[7]; ATP conc 0.5 µM,12.56% and 14.65% and 16.05%
same,Mean Activity (%) remaining compared to 100% DMSO controls,[7]; ATP conc 0.5 µM,14.42%
same,"% Activity remaining compared to 100% DMSO controls, individual replicates",[7]; ATP conc 2 µM,15.11% and 18.68% and 17.31%
same,Mean Activity (%) remaining compared to 100% DMSO controls,[7]; ATP conc 2 µM,17.03%
same,"% Activity remaining compared to 100% DMSO controls, individual replicates",[7]; ATP conc 20 µM,12.85% and 11.15% and 12.56%
same,Mean Activity (%) remaining compared to 100% DMSO controls,[7]; ATP conc 20 µM,12.19%
same,"% Activity remaining compared to 100% DMSO controls, individual replicates",[7]; ATP conc 200 µM,10.11% and 10.01% and 10.69%
same,Mean Activity (%) remaining compared to 100% DMSO controls,[7]; ATP conc 200 µM,10.27%
same,"% Activity remaining compared to 100% DMSO controls, individual replicates",[7]; ATP conc 500 µM,20.03% and 18.99% and 20.22%
same,Mean Activity (%) remaining compared to 100% DMSO controls,[7]; ATP conc 500 µM,19.74%
same,"%AMPK Activity Remaining, Mean (data for the bars)",[8]; Substrate 0.5 mg/ml as printed,34.60%
same,"%AMPK Activity Remaining, Mean (data for the bars)",[8]; Substrate 20 mg/ml as printed,17.00%
same,"%AMPK Activity Remaining, Mean (data for the bars)",[8]; Substrate 200 mg/ml as printed,25.40%
same,"%AMPK Activity Remaining, Mean (data for the bars)",[8]; Substrate 500 mg/ml as printed,17.20%
CC(=O)[O-].CC(=O)[O-].CC(=O)[O-].CC(=O)[O-].CC(=O)[O-].CC(=O)[O-].[Zn+2].[Zn+2].[Zn+2].c1ccc(-c2csc(NCCN(CCNc3nc(-c4ccccn4)cs3)CCNc3nc(-c4ccccn4)cs3)n2)nc1.c1ccc(-c2csc(NCCN(CCNc3nc(-c4ccccn4)cs3)CCNc3nc(-c4ccccn4)cs3)n2)nc1 [[L2Zn3]6+],"% Inhibition, Mean",[1]; JNK1,5%
same,mean % activity,[1]; JNK1,95%
same,% activity,"[1]; JNK1, duplicate runs",88% and 102%
same,"% Inhibition, Mean",[2]; MAPKAP-K3,93%
same,"% Inhibition, Run 1 / Run 2",[2]; MAPKAP-K3,94% and 92%
same,mean % activity,[2]; MAPKAP-K3,6.6%
same,% Activity inhibition Mean,[2]; MAPKAP-K3,93.0%
same,% Activity inhibition Run 1,[2]; MAPKAP-K3,94%
same,% Activity inhibition Run 2,[2]; MAPKAP-K3,92%
same,% Activity remaining Run 1,[2]; MAPKAP-K3,6%
same,% Activity remaining Run 2,[2]; MAPKAP-K3,8%
same,% activity,"[2]; MAPKAP-K3, duplicate runs",5.6% and 7.6%
same,"% Inhibition, Mean",[3]; YES1,8%
same,"% Inhibition, Run 1 / Run 2",[3]; YES1,7% and 8%
same,mean % activity,[3]; YES1,92%
same,% activity,"[3]; YES1, duplicate runs",93% and 92%
same,"% Inhibition, Mean",[4]; MKK2,42%
same,"% Inhibition, Run 1 / Run 2",[4]; MKK2,40% and 45%
same,mean % activity,[4]; MKK2,58%
same,% activity,"[4]; MKK2, duplicate runs",60% and 55%
same,"% Inhibition, Mean",[5]; MARK3,4.7%
same,"% Inhibition, Run 1 / Run 2",[5]; MARK3,1.7% and 8%
same,mean % activity,[5]; MARK3,95%
same,% activity,"[5]; MARK3, duplicate runs",98% and 92%
same,T172P levels of AMPKα detectable by immunoblotting,[6],significantly reduced
same,"% Activity remaining compared to 100% DMSO controls, individual replicates",[7]; ATP conc 0.5 µM,17.76% and 11.76% and 14.76%
same,Mean Activity (%) remaining compared to 100% DMSO controls,[7]; ATP conc 0.5 µM,14.76%
same,"% Activity remaining compared to 100% DMSO controls, individual replicates",[7]; ATP conc 2 µM,15.06% and 12.57% and 9.46%
same,Mean Activity (%) remaining compared to 100% DMSO controls,[7]; ATP conc 2 µM,12.36%
same,"% Activity remaining compared to 100% DMSO controls, individual replicates",[7]; ATP conc 20 µM,16.58% and 14.33% and 12.68%
same,Mean Activity (%) remaining compared to 100% DMSO controls,[7]; ATP conc 20 µM,14.53%
same,"% Activity remaining compared to 100% DMSO controls, individual replicates",[7]; ATP conc 200 µM,16.91% and 18.22% and 15.98%
same,Mean Activity (%) remaining compared to 100% DMSO controls,[7]; ATP conc 200 µM,17.04%
same,"% Activity remaining compared to 100% DMSO controls, individual replicates",[7]; ATP conc 500 µM,15.73% and 11.81% and 15.83%
same,Mean Activity (%) remaining compared to 100% DMSO controls,[7]; ATP conc 500 µM,14.46%
same,"%AMPK Activity Remaining, Mean (data for the bars)",[8]; Substrate 0.5 mg/ml as printed,42.90%
same,"%AMPK Activity Remaining, Mean (data for the bars)",[8]; Substrate 20 mg/ml as printed,39.40%
same,"%AMPK Activity Remaining, Mean (data for the bars)",[8]; Substrate 200 mg/ml as printed,43.70%
same,"%AMPK Activity Remaining, Mean (data for the bars)",[8]; Substrate 500 mg/ml as printed,35.80%
